Assay results from paper PMC9154192 (PLoS Biology, 2022).
Read-outs that look alike come from different tables or passages of the source.

Legend:
A549 cell line = settings: cited from earlier work
M. tuberculosis H37Rv = assay: microbe, parasite or virus in culture; type: cell-based, Mycobacterium tuberculosis; settings: for SI (CC50/MIC): ratio of CC50 for L929 fibroblasts to MIC for strain H37Rv
M. tuberculosis H37Ra = assay: microbe, parasite or virus in culture; type: cell-based, Mycobacterium tuberculosis
L929 murine fibroblasts = assay: in vitro; type: cell-based; settings: L929, MTT assay (Table S1)
Experimental: (§1) A549 human pulmonary epithelial cells (KCLB 10185), human embryonic kidney (HEK) 293 cells (KCLB 21573), human THP-1 leukemia cells (KCLB 40202), human neuroblastoma SH-SY5Y cells (KCLB 22266), Murine Raw 264.7 macrophages (KCLB 40071), and L929 murine fibroblasts (KCLB 10001) were purchased from the KCLB (Seoul, Korea). Cytotoxicity testing was performed using the MTT assay and the WST-1 cell viability assay as previously described.

[1] = system: Murine Raw 264.7 macrophages; assay: in vitro; type: cell-based; settings: RAW, MTT assay (Table S1)
Experimental: as §1

[2] = system: clinically isolated MDR, XDR, and TDR M. tuberculosis strains; assay: microbe, parasite or virus in culture; type: cell-based; settings: Mycobacterium tuberculosis
M. abscessus = assay: microbe, parasite or virus in culture; type: cell-based, Mycobacterium abscessus; settings: Mycobacteroides abscessus
M. arupense = assay: microbe, parasite or virus in culture; type: cell-based, Mycobacterium arupense; settings: Mycolicibacter arupensis
M. aubagnense = assay: microbe, parasite or virus in culture; type: cell-based, Mycobacterium aubagnense; settings: Mycolicibacterium aubagnense
M. avium = assay: microbe, parasite or virus in culture; type: cell-based; settings: Mycobacterium avium
M. bolletii = assay: microbe, parasite or virus in culture; type: cell-based, Mycobacterium bolletii; settings: Mycobacteroides abscessus
M. bovis = assay: microbe, parasite or virus in culture; type: cell-based; settings: Mycobacterium tuberculosis variant bovis
M. chitae = assay: microbe, parasite or virus in culture; type: cell-based, Mycobacterium chitae; settings: Mycolicibacterium chitae
M. colombiense = assay: microbe, parasite or virus in culture; type: cell-based; settings: Mycobacterium colombiense
M. conceptionense = assay: microbe, parasite or virus in culture; type: cell-based, Mycobacterium conceptionense; settings: Mycolicibacterium senegalense
M. fortuitum = assay: microbe, parasite or virus in culture; type: cell-based, Mycobacterium fortuitum; settings: Mycolicibacterium fortuitum
M. gilvum = assay: microbe, parasite or virus in culture; type: cell-based, Mycobacterium gilvum; settings: Mycolicibacterium gilvum
M. goodie = assay: microbe, parasite or virus in culture; type: cell-based; settings: Mycobacterium
M. gordonae = assay: microbe, parasite or virus in culture; type: cell-based; settings: Mycobacterium gordonae
M. heraklionease = assay: microbe, parasite or virus in culture; type: cell-based; settings: Mycobacterium
M. intracellulare = assay: microbe, parasite or virus in culture; type: cell-based; settings: Mycobacterium intracellulare
M. kansasii = assay: microbe, parasite or virus in culture; type: cell-based; settings: Mycobacterium kansasii
M. kyorinense = assay: microbe, parasite or virus in culture; type: cell-based; settings: Mycobacterium kyorinense
M. marinum = assay: microbe, parasite or virus in culture; type: cell-based; settings: Mycobacterium marinum
M. marseiliense = assay: microbe, parasite or virus in culture; type: cell-based; settings: Mycobacterium
M. massiliense = assay: microbe, parasite or virus in culture; type: cell-based, Mycobacterium massiliense; settings: Mycobacteroides abscessus
M. neoaurum = assay: microbe, parasite or virus in culture; type: cell-based, Mycobacterium neoaurum; settings: Mycolicibacterium neoaurum
M. peregrinum = assay: microbe, parasite or virus in culture; type: cell-based, Mycobacterium peregrinum; settings: Mycolicibacterium peregrinum
M. phlei = assay: microbe, parasite or virus in culture; type: cell-based, Mycobacterium phlei; settings: Mycolicibacterium phlei
M. phocaicum = assay: microbe, parasite or virus in culture; type: cell-based, Mycobacterium phocaicum; settings: Mycolicibacterium phocaicum
M. smegmatis = assay: microbe, parasite or virus in culture; type: cell-based, Mycobacterium smegmatis; settings: Mycolicibacterium smegmatis
M. szulgai = assay: microbe, parasite or virus in culture; type: cell-based; settings: Mycobacterium szulgai
M. xenopi = assay: microbe, parasite or virus in culture; type: cell-based; settings: Mycobacterium xenopi
intestinal microbiome = assay: Gut microbiome, 16s rRNA gene-based metagenomics analysis of feces; type: in vivo, BALB/c mice; settings: 30 mg/kg oral once a day for 7 days, BALB/c mice, feces
Experimental: Six-week-old BALB/c female mice were used for this study (6 mice for each group). Each drug was administered orally at 30 mg/kg once daily for 7 days. Stool was collected, and 16 rRNA gene-based metagenomics analysis was performed. Corn oil was used as the vehicle. The drug-free group received corn oil only. This animal experiment was conducted with the approval of the IACUC of the Soonchunhyang University (approval number: SCH21-0011). Microbiome analysis of collected feces was carried out as previously described with some modifications. Total DNA was extracted from the stool using the QIAamp DNA stool mini kit (Qiagen, Germany) after mechanical disruption using lysing matrix B tubes (MP Biomedicals, USA). V4 region of 16S RNA gene was amplified from extracted DNA with the following primers: forward primer ([…]) and reverse primer ([…]). PCR was performed using the Kappa HiFi hot start kit (KAPA Biosystems, USA) for 16s gene amplification and library preparation. A dsDNA HS assay kit and Qubit 4 fluorimeter (Invitrogen, USA) were used for DNA quantification. After each step, quality was checked using Agilent High Sensitivity DNA Kit and Agilent Bioanalyzer 2100 (Agilent Technologies, USA). Clean-up was performed using AMPure XP beads (Beckman Coulter, UK). The metagenomic library was prepared using a Nextera XT DNA Library Prep Kit (Illumina, USA) and loaded into an iSeq-100 reagent cartridge (Illumina, USA) together with a PhiX Control library (Illumina, USA). A 300-bp paired-end sequencing was performed on an iSeq-100 platform (Illumina, USA). Sequencing data were analyzed using the EzBioCloud server (Chunlab, Korea).

[3] = Mycobacterium tuberculosis, H37RV, read-out: MIC

COc1ccc2c3c(c4cc(OC)c(OC)cc4c2c1)CN1CCC[C@H]1C3 [DPG, deoxypergularinine]
18.7 µg/mL: CC50 (A549 cell line)

COc1ccc(/C(=C\c2ccc(OCc3ccccc3)cc2)C(=O)O)cc1OC [DPGA2]
100 µg/mL: MIC (M. tuberculosis H37Ra)
>100 µg/mL: MIC (M. tuberculosis H37Rv) | CC50 (L929 murine fibroblasts) | CC50 [1]

COC(=O)/C(=C/c1ccc(OCc2ccccc2)cc1)c1ccc(OC)c(OC)c1 [DPGA3]
>32.2: SI (CC50/MIC) (M. tuberculosis H37Rv)
>100 µg/mL: CC50 (L929 murine fibroblasts) | CC50 [1]
3.1 µg/mL: MIC (M. tuberculosis H37Rv) | MIC (M. tuberculosis H37Ra)

CCCCOc1ccc(/C=C(/C(=O)O)c2ccc(OC)c(OC)c2)cc1 [DPGA8]
89.5 µg/mL: CC50 (L929 murine fibroblasts)
<0.9: SI (CC50/MIC) (M. tuberculosis H37Rv)
>100 µg/mL: MIC (M. tuberculosis H37Rv) | MIC (M. tuberculosis H37Ra) | CC50 [1]

CCCCOc1ccc(/C=C(/C(=O)OC)c2ccc(OC)c(OC)c2)cc1 [DPGA9]
>100 µg/mL: CC50 (L929 murine fibroblasts) | CC50 [1]
25 µg/mL: MIC (M. tuberculosis H37Rv) | MIC (M. tuberculosis H37Ra)
>4.0: SI (CC50/MIC) (M. tuberculosis H37Rv)

CC[C@@H](CO)NCCN[C@@H](CC)CO [EMB, ethambutol]
0.2 µg/mL: MIC (M. chitae)
> 100 µg/mL: MIC (M. bolletii) | MIC (M. gordonae)
25 µg/mL: MIC (M. xenopi)
6.3 µg/mL: MIC ([2]; TDR-1) | MIC ([2]; TDR-2) | MIC ([2]; TDR-3) | MIC (M. colombiense) | MIC (M. neoaurum)
0.8 µg/mL: MIC (M. goodie) | MIC (M. smegmatis)
50 µg/mL: MIC (M. aubagnense) | MIC (M. avium) | MIC (M. conceptionense) | MIC (M. kyorinense)
100 µg/mL: MIC (M. abscessus) | MIC (M. heraklionease) | MIC (M. marseiliense) | MIC (M. massiliense)
3.1 µg/mL: MIC (M. intracellulare) | MIC (M. marinum) | MIC (M. peregrinum) | MIC (M. szulgai)
0.4 µg/mL: MIC (M. arupense) | MIC (M. phocaicum)
1.6 µg/mL: MIC (M. tuberculosis H37Rv; [3]) | MIC (M. bovis) | MIC (M. kansasii) | MIC (M. phlei)
12.5 µg/mL: MIC (M. fortuitum) | MIC (M. gilvum)

NC(=O)c1cnccn1 [PZA, pyrazinamide]
> 100 µg/mL: MIC (M. tuberculosis H37Rv; [3]) | MIC [2] | MIC ([2]; TDR-1) | MIC ([2]; TDR-2) | MIC ([2]; TDR-3) | MIC (M. abscessus) | MIC (M. arupense) | MIC (M. aubagnense) | MIC (M. avium) | MIC (M. bolletii) | MIC (M. bovis) | MIC (M. chitae) | MIC (M. colombiense) | MIC (M. conceptionense) | MIC (M. fortuitum) | MIC (M. gilvum) | MIC (M. goodie) | MIC (M. gordonae) | MIC (M. heraklionease) | MIC (M. intracellulare) | MIC (M. kansasii) | MIC (M. kyorinense) | MIC (M. marinum) | MIC (M. marseiliense) | MIC (M. massiliense) | MIC (M. neoaurum) | MIC (M. peregrinum) | MIC (M. phlei) | MIC (M. phocaicum) | MIC (M. smegmatis) | MIC (M. szulgai) | MIC (M. xenopi)

CN[C@H](CC(C)C)C(=O)N[C@H]1C(=O)N[C@@H](CC(N)=O)C(=O)N[C@H]2C(=O)N[C@H]3C(=O)N[C@H](C(=O)N[C@H](C(=O)O)c4cc(O)cc(O)c4-c4cc3ccc4O)[C@H](O)c3ccc(c(Cl)c3)Oc3cc2cc(c3O[C@@H]2O[C@H](CO)[C@@H](O)[C@H](O)[C@H]2O[C@H]2C[C@](C)(N)[C@H](O)[C@H](C)O2)Oc2ccc(cc2Cl)[C@H]1O [VAN, vancomycin]
significantly decreased: phylogenetic diversity compared to drug-free control group (intestinal microbiome)
significant differences: difference in phylum or class level taxa compared to drug-free group (intestinal microbiome)
significant: beta set-significance analysis, pair-wise comparison of gut microbiome (intestinal microbiome)
